Experimental data reported in US10021881B2, “Vaporized administration of pesticides” (priority 2016, dated 2018).

What was measured:
[1] = Agriphar Pyrimethanil (ISO) Safety Data Sheet; cited from earlier work
Penicillium expansum [2] = test: Fogging versus vaporizing treatment of apples, browning of top and bottom wounds; format: in vivo; conditions: 2.66 g in tunnel, 72 hours at 21° C., evaluated 4 days after removal, FIG. 23
Experimental: An in vivo assay was used to evaluate the ability of vaporized pyrimethanil to control pathogenic infection of apples by Penicillium expansum as compared to fogging methods of apple treatment. Vaporized treatments of apples were performed as previous described in Examples 1-6, with the exception of using a 1 m wide×1 m high×8 m deep tunnel (FIG. 11). A 2.66 g amount of pyrimethanil was either fogged or vaporized into the tunnel. Fruits were exposed to the treatment for 72 hours at 21° C., and then removed from the tunnel and evaluated 4 days after removal in order to observe and/or determine the area of browning wounds at the top and bottom of the fruit (see FIG. 23).

[3] = Particle size estimate from settling of fogged or vaporized pyrimethanil on Petri plates (HPLC); format: physicochemical; conditions: for estimated pyrimethanil particle size: vaporized
Penicillium expansum [4] = test: Drenching vs. vaporizing treatments of apples, browning; format: in vivo; conditions: for Percent (%) Inhibition of Internal Browning: apples stored nine weeks at 1° C.
Experimental: An in vivo assay was used to evaluate the ability of vaporized pyrimethanil to control pathogenic infection of apples by Penicillium expansum as compared to drenching methods of apple treatment. Vaporized treatments of apples were performed as previous described in Examples 1-6, with the exception of using a 1 m wide×1 m high×8 m deep tunnel (see FIG. 11). […] In addition, drenching treatments comprising a final concentration of 125 mg/L, 500 mg/L, and 2000 mg/L of pyrimethanil active ingredient were also prepared. Fruits were stored for nine weeks at 1° C., and evaluated in order to observe and/or determine the area of browning on the fruit (see FIG. 22) and the percent of browning inhibition (see Table 7).

Botrytis cinerea = test: In vivo assay of vaporized pyrimethanil to inhibit Botrytis cinerea in strawberries; conditions: for Gray Mold Severity (0-4): scale 0 no disease to 4 exceptionally high
Experimental: Eight strawberries (per repetition, in triplicate) were placed in an industry standard clamshell with the stem facing down. […] Clamshells were then placed at the bottom of a 36-L acrylic desiccator chamber in triplicate.
An appropriate amount of pyrimethanil to achieve a final headspace concentration of 1 mg/L, 0.3 mg/L, 0.1 mg/L, or 0.03 mg/L was dissolved in acetone and 100 μL of the solution was pipetted into a small glass tube. This tube was then placed inside a preheated vaporization device (0.5″ OD by 6″ long thermostatically heated copper tube mounted to a 0.5 L/min low flow fan) set at 60° C. for 1 minute to allow the acetone to evaporate, leaving behind the solid crystals of pyrimethanil.
Pyrimethanil was then introduced into the cabinets of the chamber through the bulkhead port by using the vaporization device as described in Example 1 set at 180° C. The chambers were then incubated at 21° C. for three (3) days. After incubation, fruits were evaluated daily for an additional 3 days at 21° C. Fruits were evaluated in order to observe percentage of disease incidence (%) and severity of disease. Disease severity was rated on a scale ranging from 0 to 4, where “0” indicated no disease severity, “1” indicated minimal disease severity, “2” indicated medium disease severity, “3” indicated high disease severity, and “4” indicated exceptionally high disease severity.

Penicillium digitatum = test: In vivo assay of vaporized pyrimethanil to inhibit Penicillium digitatum in oranges
Experimental: An in vivo assay was used to evaluate the ability of vaporized pyrimethanil to control pathogenic infection of oranges by Penicillium digitatum. […] Each wound was then inoculated with 30 μL of 1×10^6 spores/mL suspension of P. digitatum.
Fruits were evaluated in order to observe growth of water-soaked lesions and fungal sporulation diameter (both measured in millimeters, mm).

Penicillium expansum [5] = test: In vivo assay of vaporized pyrimethanil to inhibit Penicillium expansum in apples
Experimental: An in vivo assay was used to evaluate the ability of vaporized pyrimethanil to control pathogenic infection of apples by Penicillium expansum. […] Each wound was then inoculated with 30 μL of 1×10^6 spores/mL suspension of P. expansum.
Fruits were evaluated in order to observe disease incidence (i.e., browning) and fungal sporulation diameter (both measured in millimeters, mm).

[6] = 0.03 mg/L, Day 0 (after 3 days at 21° C.)
[7] = 0.03 mg/L, Day 1 (after 3 days at 21° C.)
[8] = 0.03 mg/L, Day 2 (after 3 days at 21° C.)
[9] = 0.03 mg/L, Day 3 (after 3 days at 21° C.)
[10] = 0.1 mg/L, Day 0 (after 3 days at 21° C.)
[11] = 0.1 mg/L, Day 1 (after 3 days at 21° C.)
[12] = 0.1 mg/L, Day 2 (after 3 days at 21° C.)
[13] = 0.1 mg/L, Day 3 (after 3 days at 21° C.)
[14] = 0.3 mg/L, Day 0 (after 3 days at 21° C.)
[15] = 0.3 mg/L, Day 1 (after 3 days at 21° C.)
[16] = 0.3 mg/L, Day 2 (after 3 days at 21° C.)
[17] = 0.3 mg/L, Day 3 (after 3 days at 21° C.)
[18] = 1 mg/L, Day 0 (after 3 days at 21° C.)
[19] = 1 mg/L, Day 1 (after 3 days at 21° C.)
[20] = 1 mg/L, Day 2 (after 3 days at 21° C.)
[21] = 1 mg/L, Day 3 (after 3 days at 21° C.)
[22] = 0.04 mg/L, Day 0 (after 3 days at 21° C.)
[23] = 0.04 mg/L, Day 1 (after 3 days at 21° C.)
[24] = 0.04 mg/L, Day 2 (after 3 days at 21° C.)
[25] = 0.2 mg/L, Day 0 (after 3 days at 21° C.)
[26] = 0.2 mg/L, Day 1 (after 3 days at 21° C.)
[27] = 0.2 mg/L, Day 2 (after 3 days at 21° C.)
[28] = 0.04 mg/L, Day 3 (after 3 days at 21° C.)
[29] = 0.2 mg/L, Day 3 (after 3 days at 21° C.)

For `Cc1cc(C)nc(Nc2ccccc2)n1` [pyrimethanil, 4,6-Dimethyl-N-phenylpyrimidin-2-amine], the “known thermal decomposition range” value [1] is listed as 189.54-344.74 °C, the “browning at the bottom of the fruit, vaporized compared with fogged” value (Penicillium expansum [2]) is listed as “much less area (mm) of browning” and the “browning on the top of the fruit, vaporized compared with fogged” value (Penicillium expansum [2]) is listed as “comparable browning”. For the same compound, the “percent of total pyrimethanil settled on the plates” value (from here on “percent … on the plates”) ([3]; FOG (MeOH + PYR), Settling Time 7.5 Minutes, Particle Size 5.9 (μm)) was 61%, the “percent … on the plates” value ([3]; FOG (MeOH + PYR), Settling Time 15 Minutes, Particle Size 4.1 (μm)) was 77% and the “percent … on the plates” value ([3]; FOG (MeOH + PYR), Settling Time 30 Minutes, Particle Size 2.8 (μm)) was 100%. The “percent … on the plates” value ([3]; FOG (MeOH + PYR), Settling Time 60 Minutes, Particle Size 1.9 (μm)) was 100%, the “percent … on the plates” value ([3]; FOG (MeOH + PYR), Settling Time 360 Minutes, Particle Size 0.75 (μm)) was 100% and the “percent … on the plates” value ([3]; VAPOR (100% Technical PYR), Settling Time 60 Minutes, Particle Size 1.9 (μm)) was 26%. For the same compound, the “percent … on the plates” value ([3]; VAPOR (100% Technical PYR), Settling Time 360 Minutes, Particle Size 0.75 (μm)) was 91%, the particle size ([3]; fog particles, 100% settled after 30 minutes) was “approximately 2.8 micron” and the “estimated pyrimethanil particle size” value ([3]; 26% settled after 60 minutes) was 1.9 micron. The “estimated pyrimethanil particle size” value ([3]; 91% settled after 360 minutes) was 0.75 micron, the “Percent (%) Inhibition of Internal Browning” value (“Percent (%) Inhibition” below) (Penicillium expansum [4]; DRENCH, Treatment Rate 500 mg/L) was 47% and the “Percent (%) Inhibition” value (Penicillium expansum [4]; DRENCH, Treatment Rate 2,000 mg/L) was 69%. For the same compound, the “Percent (%) Inhibition” value (Penicillium expansum [4]; VAPOR, Treatment Rate 0.5 mg/L) was 96%, the “Percent (%) Inhibition” value (Penicillium expansum [4]; VAPOR, Treatment Rate 2 mg/L) was 100% and the “area of browning, vaporized compared with drenched” value (Penicillium expansum [4]; apples treated in a preventative manner, nine weeks at 1° C., FIG. 22) was “less area (mm) of browning”. The “Gray Mold Incidence (%)” value (Botrytis cinerea; [6]) was 79.2%, the “Gray Mold Severity (0-4)” value (Botrytis cinerea; [6]) was 0.8 and the “Gray Mold Incidence (%)” value (Botrytis cinerea; [7]) was 87.5%. For the same compound, the “Gray Mold Severity (0-4)” value (Botrytis cinerea; [7]) was 1.3, the “Gray Mold Incidence (%)” value (Botrytis cinerea; [8]) was 91.7% and the “Gray Mold Severity (0-4)” value (Botrytis cinerea; [8]) was 1.7. The “Gray Mold Incidence (%)” value (Botrytis cinerea; [9]) was 100.0%, the “Gray Mold Severity (0-4)” value (Botrytis cinerea; [9]) was 2.1 and the “Gray Mold Incidence (%)” value (Botrytis cinerea; [10]) was 70.8%. The “Gray Mold Severity (0-4)” value (Botrytis cinerea; [10]) was 0.6, the “Gray Mold Incidence (%)” value (Botrytis cinerea; [11]) was 79.2% and the “Gray Mold Severity (0-4)” value (Botrytis cinerea; [11]) was 0.8. For the same compound, the “Gray Mold Incidence (%)” value (Botrytis cinerea; [12]) was 83.3%, the “Gray Mold Severity (0-4)” value (Botrytis cinerea; [12]) was 1.2 and the “Gray Mold Incidence (%)” value (Botrytis cinerea; [13]) was 100.0%. For the same compound, the “Gray Mold Severity (0-4)” value (Botrytis cinerea; [13]) was 1.7, the “Gray Mold Incidence (%)” value (Botrytis cinerea; [14]) was 66.7% and the “Gray Mold Severity (0-4)” value (Botrytis cinerea; [14]) was 0.4. For the same compound, the “Gray Mold Incidence (%)” value (Botrytis cinerea; [15]) was 75.0%, the “Gray Mold Severity (0-4)” value (Botrytis cinerea; [15]) was 0.5 and the “Gray Mold Incidence (%)” value (Botrytis cinerea; [16]) was 73.8%. The “Gray Mold Severity (0-4)” value (Botrytis cinerea; [16]) was 0.8, the “Gray Mold Incidence (%)” value (Botrytis cinerea; [17]) was 95.8% and the “Gray Mold Severity (0-4)” value (Botrytis cinerea; [17]) was 1.1. For the same compound, the “Gray Mold Incidence (%)” value (Botrytis cinerea; [18]) was 66.7%, the “Gray Mold Severity (0-4)” value (Botrytis cinerea; [18]) was 0.3 and the “Gray Mold Incidence (%)” value (Botrytis cinerea; [19]) was 70.8%. The “Gray Mold Severity (0-4)” value (Botrytis cinerea; [19]) was 0.4, the “Gray Mold Incidence (%)” value (Botrytis cinerea; [20]) was 69.6% and the “Gray Mold Severity (0-4)” value (Botrytis cinerea; [20]) was 0.6. The “Gray Mold Incidence (%)” value (Botrytis cinerea; [21]) was 91.7%, the “Gray Mold Severity (0-4)” value (Botrytis cinerea; [21]) was 1.0 and the “Fungal Sporulation (mm)” value (Penicillium digitatum; [22]) was 1.1 mm. For the same compound, the “Water soaked Lesion (mm)” value (Penicillium digitatum; [22]) was 0.0 mm, the “Fungal Sporulation (mm)” value (Penicillium digitatum; [23]) was 1.4 mm and the “Water soaked Lesion (mm)” value (Penicillium digitatum; [23]) was 0.0 mm. The “Fungal Sporulation (mm)” value (Penicillium digitatum; [24]) was 2.1 mm, the “Water soaked Lesion (mm)” value (Penicillium digitatum; [24]) was 0.0 mm and the “Fungal Sporulation (mm)” value (Penicillium digitatum; [25]) was 0.6 mm. The “Water soaked Lesion (mm)” value (Penicillium digitatum; [25]) was 0.0 mm, the “Fungal Sporulation (mm)” value (Penicillium digitatum; [26]) was 0.8 mm and the “Water soaked Lesion (mm)” value (Penicillium digitatum; [26]) was 0.0 mm. The “Fungal Sporulation (mm)” value (Penicillium digitatum; [27]) was 2.4 mm, the “Water soaked Lesion (mm)” value (Penicillium digitatum; [27]) was 1.5 mm and the “Fungal Sporulation (mm)” value (Penicillium digitatum; [18]) was 1.8 mm. For the same compound, the “Water soaked Lesion (mm)” value (Penicillium digitatum; [18]) was 0.0 mm, the “Fungal Sporulation (mm)” value (Penicillium digitatum; [19]) was 2.0 mm and the “Water soaked Lesion (mm)” value (Penicillium digitatum; [19]) was 0.0 mm. For the same compound, the “Fungal Sporulation (mm)” value (Penicillium digitatum; [20]) was 2.1 mm, the “Water soaked Lesion (mm)” value (Penicillium digitatum; [20]) was 0.0 mm and the “Browning (mm)” value (Penicillium expansum [5]; [22]) was 10.6 mm. For the same compound, the “Fungal Sporulation (mm)” value (Penicillium expansum [5]; [22]) was 2.6 mm, the “Browning (mm)” value (Penicillium expansum [5]; [23]) was 16.2 mm and the “Fungal Sporulation (mm)” value (Penicillium expansum [5]; [23]) was 2.1 mm. The “Browning (mm)” value (Penicillium expansum [5]; [24]) was 23.1 mm, the “Fungal Sporulation (mm)” value (Penicillium expansum [5]; [24]) was 2.8 mm and the “Browning (mm)” value (Penicillium expansum [5]; [28]) was 28.8 mm. For the same compound, the “Fungal Sporulation (mm)” value (Penicillium expansum [5]; [28]) was 3.1 mm, the “Browning (mm)” value (Penicillium expansum [5]; [25]) was 5.3 mm and the “Fungal Sporulation (mm)” value (Penicillium expansum [5]; [25]) was 0.3 mm. For the same compound, the “Browning (mm)” value (Penicillium expansum [5]; [26]) was 8.1 mm, the “Fungal Sporulation (mm)” value (Penicillium expansum [5]; [26]) was 0.8 mm and the “Browning (mm)” value (Penicillium expansum [5]; [27]) was 12.7 mm. The “Fungal Sporulation (mm)” value (Penicillium expansum [5]; [27]) was 1.4 mm, the “Browning (mm)” value (Penicillium expansum [5]; [29]) was 16.2 mm and the “Fungal Sporulation (mm)” value (Penicillium expansum [5]; [29]) was 2.6 mm. For the same compound, the “Browning (mm)” value (Penicillium expansum [5]; [18]) was 3.4 mm, the “Fungal Sporulation (mm)” value (Penicillium expansum [5]; [18]) was 0.1 mm and the “Browning (mm)” value (Penicillium expansum [5]; [19]) was 5.6 mm. For the same compound, the “Fungal Sporulation (mm)” value (Penicillium expansum [5]; [19]) was 0.7 mm, the “Browning (mm)” value (Penicillium expansum [5]; [20]) was 8.8 mm and the “Fungal Sporulation (mm)” value (Penicillium expansum [5]; [20]) was 0.8 mm. The “Browning (mm)” value (Penicillium expansum [5]; [21]) was 11.4 mm and the “Fungal Sporulation (mm)” value (Penicillium expansum [5]; [21]) was 1.6 mm.
